These results are taken from ChEMBL document CHEMBL3046389, “Synthesis and biological evaluation of novel hydroquinone dimethyl ethers as potential anticancer and antimicrobial agents” (2013).

Common to all, as to format: functional
For one experiment, the system named is NCI-H522. As to the kind of experiment: Growth inhibition of Homo sapiens (human) NCI-H522 cells at 10 uM after 48 hr by SRB assay. Conditions: NCI-H522, 48 h, read-out: GI. Background: In SRB staining, fixed cells bind dye roughly in proportion to their protein.
Another experiment concerns OVCAR-5. As to the kind of experiment: Growth inhibition of Homo sapiens (human) OVCAR5 cells at 10 uM after 48 hr by SRB assay. Conditions: OVCAR-5, 48 h, read-out: GI.
Another experiment deals with NCI/ADR-RES. As to the kind of experiment: Growth inhibition of Homo sapiens (human) NCI/ADR-RES cells at 10 uM after 48 hr by SRB assay. The settings on record: read-out: GI.
In another experiment the test system is SF-268. As to the kind of experiment: Growth inhibition of Homo sapiens (human) SF268 cells at 10 uM after 48 hr by SRB assay. The settings on record: SF-268, 48 h, read-out: GI.
Another experiment concerns COLO 205. As to the kind of experiment: Growth inhibition of Homo sapiens (human) COLO205 cells at 10 uM after 48 hr by SRB assay. The settings on record: COLO 205, 48 h, read-out: GI.
A further experiment relates to DU-145. As to the kind of experiment: Growth inhibition of Homo sapiens (human) DU145 cells at 10 uM after 48 hr by SRB assay. Conditions: DU-145, 48 h, read-out: GI.
The subject of another experiment is SK-MEL-28. As to the kind of experiment: Growth inhibition of Homo sapiens (human) SK-MEL-28 cells at 10 uM after 48 hr by SRB assay. Conditions: SK-MEL-28, 48 h, read-out: GI.
The test system of a further experiment is Malme-3M. As to the kind of experiment: Anticancer activity against Homo sapiens (human) MALME-3M cells after 48 hr by SRB assay. The settings on record: for CC50: read-out: LC50 (the source's name).
Another experiment relates to MDA-MB-231. As to the kind of experiment: Growth inhibition of Homo sapiens (human) MDA-MB-231/ATCC cells at 10 uM after 48 hr by SRB assay. The settings on record: MDA-MB-231, 48 h, read-out: GI.
For a further experiment, the system named is A498. As to the kind of experiment: Growth inhibition of Homo sapiens (human) A498 cells at 10 uM after 48 hr by SRB assay. Conditions: A498, 48 h, read-out: GI.
In a further experiment the test system is T47D. As to the kind of experiment: Anticancer activity against Homo sapiens (human) T47D cells after 48 hr by SRB assay. The settings on record: for CC50: read-out: LC50 (the source's name).
The subject of another experiment is NCI-H322M. As to the kind of experiment: Growth inhibition of Homo sapiens (human) NCI-H322M cells at 10 uM after 48 hr by SRB assay. The settings on record: read-out: GI.
The test system of a further experiment is OVCAR-3. As to the kind of experiment: Growth inhibition of Homo sapiens (human) OVCAR3 cells at 10 uM after 48 hr by SRB assay. The settings on record: OVCAR-3, 48 h, read-out: GI.
Another experiment deals with EKVX. As to the kind of experiment: Growth inhibition of Homo sapiens (human) EKVX cells at 10 uM after 48 hr by SRB assay. Conditions: read-out: GI.
The test system of a further experiment is UACC-257. As to the kind of experiment: Growth inhibition of Homo sapiens (human) UACC257 cells at 10 uM after 48 hr by SRB assay. The settings on record: UACC-257, 48 h, read-out: GI.
The next experiment has as its system CAKI-1. As to the kind of experiment: Growth inhibition of Homo sapiens (human) CAKI-1 cells at 10 uM after 48 hr by SRB assay. Conditions: CAKI-1, 48 h, read-out: GI.
In another experiment the test system is SK-MEL-2. As to the kind of experiment: Growth inhibition of Homo sapiens (human) SK-MEL-2 cells at 10 uM after 48 hr by SRB assay. The settings on record: SK-MEL-2, 48 h, read-out: GI.
For a further experiment, the system named is OVCAR-4. As to the kind of experiment: Growth inhibition of Homo sapiens (human) OVCAR4 cells at 10 uM after 48 hr by SRB assay. Conditions: OVCAR-4, 48 h, read-out: GI.
A further experiment relates to SN12C. As to the kind of experiment: Growth inhibition of Homo sapiens (human) SN12C cells at 10 uM after 48 hr by SRB assay. Conditions: read-out: GI.
Experiment [1] relates to NCI-H226. As to the kind of experiment: Anticancer activity against Homo sapiens (human) NCI-H226 cells after 48 hr by SRB assay. Conditions: NCI-H226, 48 h; for CC50: read-out: LC50 (the source's name).
A further experiment concerns NCI-H460. As to the kind of experiment: Anticancer activity against Homo sapiens (human) NCI-H460 cells after 48 hr by SRB assay. Conditions: NCI-H460, 48 h; for CC50: read-out: LC50 (the source's name).
The test system of the next experiment is SK-MEL-5. As to the kind of experiment: Growth inhibition of Homo sapiens (human) SK-MEL-5 cells at 10 uM after 48 hr by SRB assay. The settings on record: SK-MEL-5, 48 h, read-out: GI.
For a further experiment, the system named is RPMI-8226. As to the kind of experiment: Growth inhibition of Homo sapiens (human) RPMI8226 cells at 10 uM after 48 hr by SRB assay. The settings on record: RPMI-8226, 48 h, read-out: GI.
A further experiment relates to SR. As to the kind of experiment: Growth inhibition of Homo sapiens (human) SR cells at 10 uM after 48 hr by SRB assay. Conditions: read-out: GI.
Experiment [2] deals with NCI-H226. As to the kind of experiment: Growth inhibition of Homo sapiens (human) NCI-H226 cells at 10 uM after 48 hr by SRB assay. Conditions: NCI-H226, 48 h, read-out: GI.

As usually defined, the TGI is the concentration at which net growth stops. A word on the GI50: it is the concentration that inhibits growth by half. A lower GI50 goes with more potent growth inhibition. Consider `COc1ccc(OC)c(/C=C/C(=O)N/N=C/c2ccc(Cl)cc2)c1`, for which the inhibition of growth at 10 µM in the experiment on NCI-H522 was found to be 136%; in the experiment on OVCAR-5, 71.6%; with NCI/ADR-RES, 96.2%; in the experiment on SF-268 it was 66.8%; in the experiment with COLO 205, 149%; in the experiment on DU-145, 85.2%. Moreover, the inhibition of growth at 10 µM worked out at 61.2% in the experiment on SK-MEL-28; 71.9% with MDA-MB-231; 87.5% in the experiment on A498; 58.7% in the experiment with NCI-H322M; 143% in the experiment on OVCAR-3; 56.9% with EKVX. The inhibition of growth at 10 µM in the experiment with UACC-257 amounted to 47%; in the experiment on CAKI-1 it was 58.2%; with SK-MEL-2, 77.7%; in the experiment with OVCAR-4, 59.8%; with SN12C, 53.8%; with SK-MEL-5, 69.4%. Besides, the inhibition of growth at 10 µM in the experiment with RPMI-8226 was determined as 78.7%. For the same compound, the TGI in the experiment with Malme-3M is greater than 100 µM; in the experiment on T47D it was greater than 100 µM; with NCI-H226 [1], greater than 100 µM; in the experiment with NCI-H460, 13.8 µM. The CC50 with Malme-3M, in the experiment on T47D, in the experiment on NCI-H226 [1] and in the experiment on NCI-H460 was greater than 100 µM in each case. For the same compound, the values for the GI50 in the experiment on T47D, with NCI-H226 [1] and in the experiment with NCI-H460 were 0.16 µM, 0.979 µM and 119 nM, respectively.
As to `COc1ccc(OC)c(/C=C/c2nnc(S)n2-c2ccc(Cl)cc2)c1`, the concentration for 50% growth inhibition (GI50) in the experiment on Malme-3M is 70.6 µM; with T47D it was 4.5 µM; with NCI-H460 it was 4530 nM. Moreover, the TGI with Malme-3M, in the experiment on T47D and in the experiment with NCI-H460 was greater than 100 µM throughout. Besides, the CC50 in the experiment on Malme-3M, in the experiment with T47D and in the experiment with NCI-H460 was greater than 100 µM each time. For the same compound, the inhibition of growth at 10 µM was 70.6% with OVCAR-3, 61.7% with SR and 33.8% with SN12C.
`COc1ccc(OC)c(/C=C/c2nnc(Nc3ccc(Cl)cc3)o2)c1`: the GI50 in the experiment on Malme-3M was determined as 9.87 µM; in the experiment on T47D, 2.54 µM; in the experiment on NCI-H460, 3770 nM. The results for the TGI in the experiment on Malme-3M, with T47D and in the experiment on NCI-H460 were 52.4 µM, greater than 100 µM and greater than 100 µM, respectively. For the same compound, the CC50 in the experiment with Malme-3M, in the experiment with T47D and with NCI-H460 was greater than 100 µM throughout. Moreover, the inhibition of growth at 10 µM came out at 41.4% with NCI-H322M; 67.9% in the experiment on OVCAR-3; 116% in the experiment on OVCAR-4; 55.1% with SN12C; 43.9% with NCI-H226 [2].
Consider `COc1ccc(OC)c(/C=C/C(=O)N/N=C/c2ccccc2)c1`, for which the inhibition of growth at 10 µM came out at 115% in the experiment with NCI-H522; 91.5% with NCI/ADR-RES; 39.3% with SF-268; 57.2% in the experiment on COLO 205; 34.5% with SK-MEL-28; 61.3% with A498. Moreover, the inhibition of growth at 10 µM was 94% in the experiment with OVCAR-3; 36% with EKVX; 48.7% in the experiment with UACC-257; 52.2% with CAKI-1; 101% in the experiment with SK-MEL-2; 47.9% in the experiment with SN12C. For the same compound, the inhibition of growth at 10 µM in the experiment with SK-MEL-5 was determined as 69.2%; in the experiment with RPMI-8226, 45.6%. Besides, the GI50 with Malme-3M came out at 2.12 µM; in the experiment on T47D it was 4.86 µM; in the experiment on NCI-H226 [1], 30.8 µM; in the experiment with NCI-H460, 2080 nM. Further, the total growth inhibition concentration (TGI) in the experiment on Malme-3M was greater than 100 µM; with T47D it was greater than 100 µM; in the experiment with NCI-H226 [1], greater than 100 µM; with NCI-H460 it was 5.62 µM. In addition, the CC50 with Malme-3M was greater than 100 µM; in the experiment with T47D, greater than 100 µM; in the experiment on NCI-H226 [1], greater than 100 µM; in the experiment with NCI-H460 it was 28.3 µM.
